Laboratory results from US5028609A, “Alkyl diamine derivatives” (Alkaloida Vegyeszeti Gyar, priority 1983, dated 1991).

Key:
arrhythmia in rats = test: arrhythmia test carried out in rats according to Zetler and Strubelt (ED125, ED150); assay type: in vivo; conditions: Rattus norvegicus, iv
Procedure: In cases of compounds having outstanding antiarrhythmic activity ED125 and ED150 values were calculated in arrhythmia test carried out in rats according to Zetler and Strubelt (Arzneim.-Forsch.) Drug.

[1] = test system: aconitine arrhythmia on rats; test: preventive aconitine arrhythmia test on rats; assay type: in vivo, rats of Wistar strain; conditions: for arrhythmia appearance time: ± S.E., 30 min monitoring; for responders at 4 mg/kg: read-out: positive cases, 4.0 mg/kg i.v., 2 min before aconitine
Procedure: The antiarrhythmic activity of the compounds of the Formula I was compared in a preventive aconitine arrhythmia test on rats as follows:
rats of Wistar strain weighing 200 to 250 g. were narcotized i.p. with 1.25 g./kg. of urethane and their ECG was registered by a Hellige equipment by II standard limb head.
Arrhythmia was induced by an i.v. infusion of 30 /ug/kg. aconitine nitrate whereafter the ECG was continuously monitored for 30 minutes.
Those cases were considered positive, where within 30 minutes after the aconitine infusion not a single phase of the arrhythmia occurred.
In control animals pretreated i.v. with a 0.9% sodium chloride solution (0.1 ml./100 g.) (n=20) the arrhythmogenic activity of the aconitine nitrate appeared after 2.88±0.32 minutes.
Per cent values of the positive cases, average time of the appearance of the arrhythmia-when the induced arrhythmia appeared within 30 minutes and toxicity values are shown.

white mice = test: acute intravenous toxicity, method of Litchfield and Wilcoxon; assay type: in vivo; conditions: i.v.
Procedure: (§1) The acute intravenous (i.v.) toxicity values of the testcompounds was determined by the method of Litchfield and Wilcoxon and as test-animals white mice of both sexes were used (J. of Pharmacol. 1949, 96, 99.).

[2] = as above; assay type: in vivo; conditions: mouse, in vivo, iv, mice
Procedure: as §1

[3] = Rattus norvegicus, iv, 0.5 h, no arrhythmia within 30 min = positive

COc1cc(C(=O)NCCCNC(=O)C2=CC(C)(C)NC2(C)C)cc(OC)c1OC [I/2]
ED125 (arrhythmia in rats): 7.6 mg/kg
ED150 (arrhythmia in rats): 12.3 mg/kg
arrhythmia appearance time ([1]; 12.0 mg/kg i.v.): 16.7 ± 1.7 min
responders at 12 mg/kg ([1]; Rattus norvegicus, iv, 0.5 h, read-out: positive cases, 12.0 mg/kg i.v., 2 min before aconitine, no arrhythmia within 30 min = positive): 70%
LD50 (white mice): 119 mg/kg

CC=Cc1ccc(OCC(=O)NCCCNC(=O)C2=CC(C)(C)NC2(C)C)c(OC)c1 [I/8]
ED125 (arrhythmia in rats): 1.5 mg/kg
ED150 (arrhythmia in rats): 2.2 mg/kg
arrhythmia appearance time ([1]; 3.0 mg/kg i.v.): > 30 min
responders at 3 mg/kg ([1]; Rattus norvegicus, iv, 0.5 h, read-out: positive cases, 3.0 mg/kg i.v., 2 min before aconitine, no arrhythmia within 30 min = positive): 100%
LD50 [2]: 30 mg/kg

C=CCc1ccc(OCC(=O)NCCCNC(=O)C2=CC(C)(C)NC2(C)C)c(OC)c1 [I/9, N-(2-methoxy-4-allyl)-phenoxy-acetyl-N'-(2,2,5,5-tetramethyl-3-pyrroline-3-carbonyl)-1,3-propylene-diamine]
ED125 (arrhythmia in rats): 0.7 mg/kg
ED150 (arrhythmia in rats): 1.4 mg/kg
arrhythmia appearance time ([1]; 1.9 mg/kg i.v.): > 30 min
responders at 1.9 mg/kg ([1]; Rattus norvegicus, iv, 0.5 h, read-out: positive cases, 1.9 mg/kg i.v., 2 min before aconitine, no arrhythmia within 30 min = positive): 100%
LD50 (white mice): 19 mg/kg

C=CCc1cc(C)ccc1OCC(=O)NCCCNC(=O)C1=CC(C)(C)NC1(C)C [I/11]
ED125 (arrhythmia in rats): 1.4 mg/kg
ED150 (arrhythmia in rats): 2.4 mg/kg
arrhythmia appearance time ([1]; 1.4 mg/kg i.v.): 20.1 ± 2.5 min
responders at 1.4 mg/kg ([1]; Rattus norvegicus, iv, 0.5 h, read-out: positive cases, 1.4 mg/kg i.v., 2 min before aconitine, no arrhythmia within 30 min = positive): 80%
LD50 (white mice): 14 mg/kg

CC1(C)C=C(C(=O)NCCCNC(=O)CSc2ccccc2)C(C)(C)N1 [I/12]
ED125 (arrhythmia in rats): 4.6 mg/kg
ED150 (arrhythmia in rats): 6.95 mg/kg
arrhythmia appearance time ([1]; 4.0 mg/kg i.v.): 28.5 min
responders at 4 mg/kg [1, 3]: 90%
LD50 (white mice): 38 mg/kg

CC1(C)C=C(C(=O)NCCCNC(=O)Cc2cccs2)C(C)(C)N1 [I/19]
ED125 (arrhythmia in rats): 2 mg/kg
ED150 (arrhythmia in rats): 3.1 mg/kg
arrhythmia appearance time ([1]; 7.0 mg/kg i.v.): 27.5 ± 2.5 min
responders at 7 mg/kg ([1]; Rattus norvegicus, iv, 0.5 h, read-out: positive cases, 7.0 mg/kg i.v., 2 min before aconitine, no arrhythmia within 30 min = positive): 80%
LD50 (white mice): 71 mg/kg

CC=Cc1ccc(OCC(=O)NCCNC(=O)C2=CC(C)(C)NC2(C)C)c(OC)c1 [I/21]
ED125 (arrhythmia in rats): 2.4 mg/kg
ED150 (arrhythmia in rats): 4.1 mg/kg
arrhythmia appearance time ([1]; 4.0 mg/kg i.v.): > 30 min
responders at 4 mg/kg [1, 3]: 100%
LD50 [2]: 18 mg/kg

CC=Cc1ccc(OC(C)C(=O)NCCCNC(=O)C2=CC(C)(C)NC2(C)C)c(OC)c1 (stereo not drawn) [I/22]
ED125 (arrhythmia in rats): 1.9 mg/kg
ED150 (arrhythmia in rats): 2.7 mg/kg
arrhythmia appearance time ([1]; 4.0 mg/kg i.v.): > 30 min
responders at 4 mg/kg [1, 3]: 100%
LD50 [2]: 14 mg/kg

CC1(C)C=C(C(=O)NCCNCc2cccs2)C(C)(C)N1 [I/36]
ED125 (arrhythmia in rats): 4.5 mg/kg
ED150 (arrhythmia in rats): 7.6 mg/kg
arrhythmia appearance time ([1]; 4.0 mg/kg i.v.): 15.9 ± 0.3 min
responders at 4 mg/kg [1, 3]: 70%
LD50 [2]: 49 mg/kg

CC1(C)C=C(C(=O)NCCCNCc2ccccc2)C(C)(C)N1 [I/38]
ED125 (arrhythmia in rats): 2.2 mg/kg
ED150 (arrhythmia in rats): 3.6 mg/kg
arrhythmia appearance time ([1]; 4.0 mg/kg i.v.): 27.5 min
responders at 4 mg/kg [1, 3]: 90%
LD50 (white mice): 26 mg/kg

CC1(C)C=C(C(=O)NCCCNCc2cccs2)C(C)(C)N1 [I/44]
responders at 6.5 mg/kg ([1]; Rattus norvegicus, iv, 0.5 h, read-out: positive cases, 6.5 mg/kg i.v., 2 min before aconitine, no arrhythmia within 30 min = positive): 100%

CC1(C)C=C(C(=O)NCCCCNCc2cccs2)C(C)(C)N1 [I/49]
ED125 (arrhythmia in rats): 2.3 mg/kg
ED150 (arrhythmia in rats): 4.7 mg/kg
arrhythmia appearance time ([1]; 2.8 mg/kg i.v.): 10.0 min
responders at 2.8 mg/kg ([1]; Rattus norvegicus, iv, 0.5 h, read-out: positive cases, 2.8 mg/kg i.v., 2 min before aconitine, no arrhythmia within 30 min = positive): 90%
LD50 (white mice): 28 mg/kg

CC1(C)CC(C(=O)NCCCNCc2cccs2)C(C)(C)N1 (stereo not drawn) [I/50]
ED125 (arrhythmia in rats): 2.7 mg/kg
ED150 (arrhythmia in rats): 4.2 mg/kg
arrhythmia appearance time ([1]; 4.3 mg/kg i.v.): 30 min
responders at 4.3 mg/kg ([1]; Rattus norvegicus, iv, 0.5 h, read-out: positive cases, 4.3 mg/kg i.v., 2 min before aconitine, no arrhythmia within 30 min = positive): 100%
LD50 (white mice): 43 mg/kg

CC1(C)CC(C(=O)NCCCNCc2ccc(C(F)(F)F)cc2)C(C)(C)N1 (stereo not drawn) [I/52]
ED125 (arrhythmia in rats): 2.1 mg/kg
ED150 (arrhythmia in rats): 2.9 mg/kg
arrhythmia appearance time ([1]; 4.0 mg/kg i.v.): 7.3 min
responders at 4 mg/kg [1, 3]: 90%
LD50 (white mice): 39 mg/kg

CC1(C)C=C(C(=O)NCCCNCc2ccsc2)C(C)(C)N1 [I/53]
ED125 (arrhythmia in rats): 3.4 mg/kg
ED150 (arrhythmia in rats): 5.5 mg/kg
arrhythmia appearance time ([1]; 4.0 mg/kg i.v.): 30 min
responders at 4 mg/kg [1, 3]: 100%
LD50 (white mice): 28 mg/kg

CC1(C)CC(C(=O)NCCCNCc2ccsc2)C(C)(C)N1 (stereo not drawn) [I/54]
ED125 (arrhythmia in rats): 6.9 mg/kg
ED150 (arrhythmia in rats): 13.2 mg/kg
arrhythmia appearance time ([1]; 4.0 mg/kg i.v.): 5.2 ± 0.8 min
responders at 4 mg/kg [1, 3]: 70%
LD50 (white mice): 19 mg/kg

CC1(C)C=C(C(=O)NCCCN2C(=O)C3CC=CCC3C2=O)C(C)(C)N1 (stereo not drawn) [I/58]
arrhythmia appearance time ([1]; 11.3 mg/kg i.v.): 13.1 ± 2.5 min
responders at 11.3 mg/kg ([1]; Rattus norvegicus, iv, 0.5 h, read-out: positive cases, 11.3 mg/kg i.v., 2 min before aconitine, no arrhythmia within 30 min = positive): 50%
LD50 (white mice): 113 mg/kg

CC1(C)C=C(C(=O)NCCN2C(=O)c3ccccc3C2=O)C(C)(C)N1 [I/59]
ED125 (arrhythmia in rats): 4.2 mg/kg
ED150 (arrhythmia in rats): 7.9 mg/kg
arrhythmia appearance time ([1]; 5.5 mg/kg i.v.): 30 min
responders at 5.5 mg/kg ([1]; Rattus norvegicus, iv, 0.5 h, read-out: positive cases, 5.5 mg/kg i.v., 2 min before aconitine, no arrhythmia within 30 min = positive): 100%
LD50 (white mice): 55 mg/kg

CC1(C)C=C(C(=O)NCCCN2C(=O)c3ccccc3C2=O)C(C)(C)N1 [I/60]
ED125 (arrhythmia in rats): 1.4 mg/kg
ED150 (arrhythmia in rats): 2.6 mg/kg
arrhythmia appearance time ([1]; 2.3 mg/kg i.v.): 26.0 min
responders at 2.3 mg/kg ([1]; Rattus norvegicus, iv, 0.5 h, read-out: positive cases, 2.3 mg/kg i.v., 2 min before aconitine, no arrhythmia within 30 min = positive): 90%
LD50 (white mice): 23 mg/kg

CC1(C)C=C(C(=O)NCC(O)CN2C(=O)c3ccccc3C2=O)C(C)(C)N1 (stereo not drawn) [I/61]
ED125 (arrhythmia in rats): 1.9 mg/kg
ED150 (arrhythmia in rats): 3 mg/kg
arrhythmia appearance time ([1]; 4.0 mg/kg i.v.): 30 min
responders at 4 mg/kg [1, 3]: 100%
LD50 (white mice): 28 mg/kg

CC1(C)CC(C(=O)NCCCN2C(=O)c3ccccc3C2=O)C(C)(C)N1 (stereo not drawn) [I/62]
ED125 (arrhythmia in rats): 2.6 mg/kg
ED150 (arrhythmia in rats): 4.5 mg/kg
arrhythmia appearance time ([1]; 4.0 mg/kg i.v.): 30 min
responders at 4 mg/kg [1, 3]: 100%
LD50 (white mice): 22 mg/kg

CC1(C)C=C(C(=O)NCCCNC(=O)c2ccccc2C(=O)O)C(C)(C)N1 [I/68, N-(2,2,5,5-tetramethyl-3-pyrroline-3-carbonyl)-N'-(2-carboxybenzoyl)-1,3-diaminopropane]
arrhythmia appearance time ([1]; 41.9 mg/kg i.v.): 4.6 ± 0.7 min
responders at 41.9 mg/kg ([1]; Rattus norvegicus, iv, 0.5 h, read-out: positive cases, 41.9 mg/kg i.v., 2 min before aconitine, no arrhythmia within 30 min = positive): 40%
LD50 (white mice): 419 mg/kg

Cc1nc2ccccc2c(=O)n1CCCNC(=O)C1=CC(C)(C)NC1(C)C [I/70, 2-Methyl-3-[3-(2,2,5,5-tetramethyl-3-pyrroline-3-carbonyl-amino)-propyl]-quinazoline-4(3H)-one]
ED125 (arrhythmia in rats): 2.5 mg/kg
ED150 (arrhythmia in rats): 4.5 mg/kg
arrhythmia appearance time ([1]; 4.0 mg/kg i.v.): 30 min
responders at 4 mg/kg [1, 3]: 100%
LD50 (white mice): 31 mg/kg

CCc1nc2ccccc2c(=O)n1CCNC(=O)C1=CC(C)(C)NC1(C)C [I/71]
ED125 (arrhythmia in rats): 3.8 mg/kg
ED150 (arrhythmia in rats): 10.5 mg/kg
arrhythmia appearance time ([1]; 4.0 mg/kg i.v.): 30 min
responders at 4 mg/kg [1, 3]: 100%
LD50 (white mice): 48 mg/kg

CCc1nc2ccccc2c(=O)n1CCCNC(=O)C1=CC(C)(C)NC1(C)C [I/72]
ED125 (arrhythmia in rats): 1.1 mg/kg
ED150 (arrhythmia in rats): 1.7 mg/kg
arrhythmia appearance time ([1]; 4.0 mg/kg i.v.): 30 min
responders at 4 mg/kg [1, 3]: 100%
LD50 (white mice): 13 mg/kg

CCc1nc2ccccc2c(=O)n1CCCNC(=O)C1CC(C)(C)NC1(C)C (stereo not drawn) [I/74]
ED125 (arrhythmia in rats): 1.9 mg/kg
ED150 (arrhythmia in rats): 2.7 mg/kg
arrhythmia appearance time ([1]; 4.0 mg/kg i.v.): 30 min
responders at 4 mg/kg [1, 3]: 100%
LD50 (white mice): 22 mg/kg

CCN(CC)CCNC(=O)c1ccc(N)cc1 [procainamide, reference compound]
ED125 (arrhythmia in rats): 11 mg/kg
ED150 (arrhythmia in rats): 14 mg/kg
arrhythmia appearance time ([1]; 8.0 mg/kg i.v.): 9.5 ± 1.2 min
responders at 8 mg/kg ([1]; Rattus norvegicus, iv, 0.5 h, read-out: positive cases, 8.0 mg/kg i.v., 2 min before aconitine, no arrhythmia within 30 min = positive): 30%
LD50 [2]: 141 mg/kg

C=C[C@H]1C[N@@]2CC[C@H]1C[C@@H]2[C@@H](O)c1ccnc2ccc(OC)cc12 [quinidine, reference compound]
ED125 (arrhythmia in rats): 7.8 mg/kg
ED150 (arrhythmia in rats): 10.8 mg/kg
arrhythmia appearance time ([1]; 9.5 mg/kg i.v.): 10.0 ± 0.4 min
responders at 9.5 mg/kg ([1]; Rattus norvegicus, iv, 0.5 h, read-out: positive cases, 9.5 mg/kg i.v., 2 min before aconitine, no arrhythmia within 30 min = positive): 70%
LD50 [2]: 95 mg/kg
